Laboratory results as given in the supplement of paper PMC11061612.

What was measured:
Assay in all cases: Bliss excess, mean over the matrix (fraction); higher = more synergy
[1] = tested on: huH-1 (Hepatocellular Carcinoma)
Summary of the method: (§1)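 Cell lines in DMEM/F12 or RPMI with 10% FBS were plated in 1536-well plates, held 24 hours at 37°C, 5% CO2, then given two-drug dose matrices for 72 hours (DMSO typically 0.2%). Viability was read by CellTiter-Glo 2.0 luminescence and scaled as inhibition from 0 (vehicle wells) to 1 (blank wells). Combination Emax is the second-highest inhibition in the matrix; Bliss excess is observed combination effect minus expected EA + EB − EA·EB, EA and EB being single-agent effects.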

[2] = tested on: GCT (Other Solid Carcinomas)
Summary of the method: as §1

[3] = tested on: 769-P (Kidney Carcinoma)
Summary of the method: as §1

[4] = tested on: 22RV1 (Prostate Carcinoma)
Summary of the method: as §1

[5] = tested on: EB2 (Burkitt's Lymphoma)
Summary of the method: as §1

[6] = tested on: DMS-53 (Small Cell Lung Carcinoma)
Summary of the method: as §1

[7] = tested on: EPLC-272H (Other Solid Carcinomas)
Summary of the method: as §1

[8] = tested on: SW620 (Colorectal Carcinoma)
Summary of the method: as §1

[9] = tested on: NCI-H2228 (Lung Adenocarcinoma)
Summary of the method: as §1

[10] = tested on: NCI-H1703 (Squamous Cell Lung Carcinoma)
Summary of the method: as §1

[11] = tested on: OACp4C (Esophageal Adenocarcinoma)
Summary of the method: as §1

[12] = tested on: NCI-H716 (Colorectal Carcinoma)
Summary of the method: as §1

[13] = tested on: NCI-H441 (Lung Adenocarcinoma)
Summary of the method: as §1

[14] = tested on: HT55 (Colorectal Carcinoma)
Summary of the method: as §1

[15] = tested on: PEO1 (Ovarian Carcinoma)
Summary of the method: as §1

[16] = tested on: CESS (Acute Myeloid Leukemia)
Summary of the method: as §1

[17] = tested on: MDA-MB-436 (Breast Carcinoma)
Summary of the method: as §1

[18] = tested on: EW-16 (Ewing's Sarcoma)
Summary of the method: as §1

[19] = tested on: JIMT-1 (Breast Carcinoma)
Summary of the method: as §1

[20] = tested on: NB13 (Neuroblastoma)
Summary of the method: as §1

## C=CCn1c(=O)c2cnc(Nc3ccc(N4CCN(C)CC4)cc3)nc2n1-c1cccc(C(C)(C)O)n1 [AZD1775] + C1CN(CCC1(C(=O)N[C@@H](CCO)C2=CC=C(C=C2)Cl)N)C3=NC=NC4=C3C=CN4 [Capivasertib] (first compound max 3 µM, partner max 3 µM)
[1]
  Bliss excess: -0.0242
[2]
  Bliss excess: 0.004
[3]
  Bliss excess: -0.0475
[4]
  Bliss excess: -0.0348
[5]
  Bliss excess: -0.0204
[6]
  Bliss excess: -0.007
[7]
  Bliss excess: -0.0011
[8]
  Bliss excess: -0.0402
[9]
  Bliss excess: -0.0181
[10]
  Bliss excess: 0.0131
[11]
  Bliss excess: 0.0005
[12]
  Bliss excess: -0.034
[13]
  Bliss excess: -0.0427
[14]
  Bliss excess: -0.125
[15]
  Bliss excess: -0.0697
[16]
  Bliss excess: -0.0359
[17]
  Bliss excess: 0.0064
[18]
  Bliss excess: -0.0481
[19]
  Bliss excess: 0.0069

## Cn1cnc2c(F)c(Nc3ccc(Br)cc3Cl)c(C(=O)NOCCO)cc21 [Selumetinib] + CC(C)n1c(=O)n(C)c2cnc3cc(F)c(-c4ccc(OCCCN5CCCCC5)nc4)cc3c21 [AZD1390] (first compound max 10 µM, 7x7, partner max 0.3 µM)
[1]
  Bliss excess: -0.0349
[2]
  Bliss excess: -0.0054
[20]
  Bliss excess: -0.0532
[3]
  Bliss excess: 0.0125
[4]
  Bliss excess: -0.0538
[5]
  Bliss excess: -0.0532
[6]
  Bliss excess: -0.0267
[7]
  Bliss excess: -0.0442
[8]
  Bliss excess: -0.0102
[9]
  Bliss excess: -0.0477
[10]
  Bliss excess: -0.0158
[11]
  Bliss excess: 0.0048
[12]
  Bliss excess: 0.0093
[13]
  Bliss excess: -0.0394
[14]
  Bliss excess: -0.0388
[15]
  Bliss excess: -0.0118
[16]
  Bliss excess: -0.0355
[17]
  Bliss excess: -0.0394
[18]
  Bliss excess: -0.0582
[19]
  Bliss excess: -0.0471

## Cc1c2c(nn1C)CSCc1cc(n(C)n1)CSc1cc(c3ccccc3c1)OCCCc1c(C(=O)O)n(C)c3c-2c(Cl)ccc13 [AZD5991] + Cn1cnc2c(F)c(Nc3ccc(Br)cc3Cl)c(C(=O)NOCCO)cc21 [Selumetinib] (first compound max 1 µM, 7x7, partner max 3 µM)
[1]
  Bliss excess: -0.0382
[2]
  Bliss excess: 0.0058
[20]
  Bliss excess: 0.045
[3]
  Bliss excess: -0.035
[4]
  Bliss excess: 0.0253
[5]
  Bliss excess: -0.0046
[6]
  Bliss excess: 0.0572
[7]
  Bliss excess: 0.0197
[8]
  Bliss excess: 0.0005
[9]
  Bliss excess: 0.0038
[10]
  Bliss excess: -0.0087
[11]
  Bliss excess: 0.143
[12]
  Bliss excess: 0.0278
[13]
  Bliss excess: -0.0311
[14]
  Bliss excess: 0.043
[15]
  Bliss excess: 0.0027
[17]
  Bliss excess: -0.0127
[18]
  Bliss excess: 0.046
[19]
  Bliss excess: -0.014

## CC1(C)CCC(CN2CCN(c3ccc(C(=O)NS(=O)(=O)c4ccc(NCC5CCOCC5)c([N+](=O)[O-])c4)c(Oc4cnc5[nH]ccc5c4)c3)CC2)=C(c2ccc(Cl)cc2)C1 [Venetoclax] + CS(=O)(=O)CCNCc1ccc(-c2ccc3ncnc(Nc4ccc(OCc5cccc(F)c5)c(Cl)c4)c3c2)o1 [Lapatinib] (first compound max 1 µM, 7x7, partner max 10 µM)
[20]
  Bliss excess: -0.028
[3]
  Bliss excess: 0.0871
[4]
  Bliss excess: -0.0688
[5]
  Bliss excess: -0.039
[8]
  Bliss excess: -0.0409
[10]
  Bliss excess: 0.0019
[13]
  Bliss excess: -0.0292
[15]
  Bliss excess: -0.0673
[17]
  Bliss excess: -0.0222

## CS(=O)(=O)CCNCc1ccc(-c2ccc3ncnc(Nc4ccc(OCc5cccc(F)c5)c(Cl)c4)c3c2)o1 [Lapatinib] + NC1(c2ccc(-c3nc4ccn5c(=O)[nH]nc5c4cc3-c3ccccc3)cc2)CCC1 [MK-2206] (first compound max 10 µM, 7x7, partner max 10 µM)
[20]
  Bliss excess: -0.0348
[3]
  Bliss excess: 0.0372
[4]
  Bliss excess: -0.0139
[5]
  Bliss excess: -0.0348
[6]
  Bliss excess: 0.0185
[8]
  Bliss excess: -0.0275
[10]
  Bliss excess: -0.0136
[13]
  Bliss excess: -0.0033
[15]
  Bliss excess: -0.0687
[17]
  Bliss excess: 0.0323

## CN(C)CCCOc1ccc(-c2ccc3ncc4c(c3c2)n(C2CCOCC2)c(=O)n4C)cn1 [AZD0156] + O=C(c1cc(Cc2n[nH]c(=O)c3ccccc23)ccc1F)N1CCN(C(=O)C2CC2)CC1 [Olaparib] (first compound max 3 µM, partner max 3 µM)
[1]
  Bliss excess: -0.0726
[2]
  Bliss excess: 0.0068
[3]
  Bliss excess: -0.0148
[4]
  Bliss excess: 0.0313
[5]
  Bliss excess: 0.0892
[6]
  Bliss excess: -0.0283
[7]
  Bliss excess: -0.0122
[8]
  Bliss excess: 0.0953
[9]
  Bliss excess: 0.0272
[10]
  Bliss excess: 0.0821
[11]
  Bliss excess: -0.0005
[12]
  Bliss excess: 0.002
[13]
  Bliss excess: -0.0003
[14]
  Bliss excess: 0.0254
[15]
  Bliss excess: -0.0891
[16]
  Bliss excess: 0.075
[17]
  Bliss excess: -0.0232
[18]
  Bliss excess: 0.0975
[19]
  Bliss excess: -0.0233

## CS(=O)(=O)CCNCc1ccc(-c2ccc3ncnc(Nc4ccc(OCc5cccc(F)c5)c(Cl)c4)c3c2)o1 [Lapatinib] + Cn1cnc2c(F)c(Nc3ccc(Br)cc3Cl)c(C(=O)NOCCO)cc21 [Selumetinib] (first compound max 10 µM, 7x7, partner max 10 µM)
[20]
  Bliss excess: -0.0311
[3]
  Bliss excess: 0.0368
[4]
  Bliss excess: -0.045
[5]
  Bliss excess: -0.0474
[8]
  Bliss excess: -0.0193
[10]
  Bliss excess: -0.0179
[13]
  Bliss excess: -0.0353
[15]
  Bliss excess: -0.0453
[17]
  Bliss excess: -0.0587

## Cc1c2c(nn1C)CSCc1cc(n(C)n1)CSc1cc(c3ccccc3c1)OCCCc1c(C(=O)O)n(C)c3c-2c(Cl)ccc13 [AZD5991] + C=CCn1c(=O)c2cnc(Nc3ccc(N4CCN(C)CC4)cc3)nc2n1-c1cccc(C(C)(C)O)n1 [AZD1775] (first compound max 1 µM, partner max 1 µM)
[1]
  Bliss excess: -0.0405
[2]
  Bliss excess: 0.0301
[20]
  Bliss excess: -0.0346
[3]
  Bliss excess: -0.071
[4]
  Bliss excess: -0.003
[5]
  Bliss excess: -0.0969
[6]
  Bliss excess: 0.0326
[7]
  Bliss excess: 0.0188
[8]
  Bliss excess: -0.0272
[9]
  Bliss excess: 0.0114
[10]
  Bliss excess: -0.0214
[11]
  Bliss excess: 0.0186
[13]
  Bliss excess: 0.0171
[14]
  Bliss excess: 0.0215
[15]
  Bliss excess: 0.0146
[16]
  Bliss excess: -0.0098
[17]
  Bliss excess: 0.0087
[18]
  Bliss excess: -0.0392
[19]
  Bliss excess: 0.0464

## C[C@@H](Oc1cc(-c2cnn(C3CCNCC3)c2)cnc1N)c1c(Cl)ccc(F)c1Cl [Crizotinib] + CC1=C(C(=CC=C1)Cl)NC(=O)C2=CN=C(S2)NC3=CC(=NC(=N3)C)N4CCN(CC4)CCO [Dasatinib] (first compound max 10 µM, 7x7, partner max 2 µM)
[20]
  Bliss excess: -0.06
[3]
  Bliss excess: -0.0405
[4]
  Bliss excess: -0.0187
[5]
  Bliss excess: 0.0112
[8]
  Bliss excess: 0.0171
[10]
  Bliss excess: -0.0736
[13]
  Bliss excess: 0.0104
[15]
  Bliss excess: -0.0226
[17]
  Bliss excess: -0.0418
